Measured values as given in PubChem BioAssay (NCI).
Several values for one entry are separate records, joined by “and”; a condition that tells them apart may be missing. Equal entries are not always repeated.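 Interpolation was linear, between the two tested concentrations surrounding the appropriate level; five concentrations were tested over 48 hours in 96-well plates. GI50 is the concentration that inhibits growth by half. The concentration for full growth arrest is given as TGI.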

Assays:
Experiment in all cases: DTP human tumour cell line panel, 48 h
[1] = tested on: COLO 205 colon
[2] = tested on: HOP-62 NSCLC
[3] = tested on: HT29 colon
[4] = tested on: MCF7 breast
[5] = tested on: NCI-H460 lung
[6] = tested on: PC-3 prostate
[7] = tested on: SF-268 CNS
[8] = tested on: SF-539 CNS
[9] = tested on: SK-OV-3 ovarian
[10] = tested on: SR leukemia

`O=c1c(-c2ccccc2)coc2cc(OC/C(=N/O)c3ccc(F)cc3)ccc12` gave a GI50 [1] of 18.9 µM, a TGI [1] of 50.7 µM and a GI50 [2] of 27 µM. For the same molecule, the TGI [2] was 53.5 µM, the GI50 [3] was 27.8 µM and the TGI [3] was > 100 µM. The GI50 [4] was 25.9 µM, the TGI [4] was > 100 µM and the GI50 [5] was 17.4 µM. It also gave a TGI [5] of 38.2 µM, a GI50 [6] of 19 µM and a TGI [6] of 45.9 µM. It also gave a GI50 [7] of 21.5 µM, a TGI [7] of 50.6 µM and a GI50 [8] of 15.2 µM. It also gave a TGI [8] of 29.6 µM, a GI50 [9] of 15.4 µM and a TGI [9] of 35.8 µM.

For `Cc1cc(NC(=O)c2cnc(N3CCN(CCOCCOCCOCCOCCC(=O)N[C@H](C(=O)N4C[C@H](O)C[C@H]4C(=O)N[C@@H](C)c4ccc(-c5scnc5C)cc4)C(C)(C)C)CC3)cn2)c2ncccc2c1`, the GI50 [1] was 5.11 µM, the TGI [1] was > 100 µM and the GI50 [3] was 2.54 µM. For the same molecule, the TGI [3] was 7.63 µM, the GI50 [4] was 3.14 µM and the TGI [4] was > 100 µM. It also gave a GI50 [5] of 3.37 µM, a TGI [5] of 11 µM and a GI50 [6] of 2.85 µM. It also gave a TGI [6] of 10.4 µM, a GI50 [7] of 3.02 µM and a TGI [7] of 18.3 µM. The GI50 [8] was 2.12 µM, the TGI [8] was 4.68 µM and the GI50 [9] was 8.5 µM. For the same molecule, the TGI [9] was > 100 µM.

`COCCOCOC(C)(C)[C@H](CCOC(C)=O)O[Si](c1ccccc1)(c1ccccc1)C(C)(C)C` was tested, and the TGI [1] was 13.7 µM, the TGI [2] was 66.7 µM and the TGI [3] was 28.5 µM. For the same molecule, the TGI [5] was 24.1 µM, the TGI [7] was > 100 µM and the TGI [9] was > 100 µM. It also gave a TGI [10] of 14 µM.

For `NC(=O)C12CC3CC(CC(Br)(C3)C1)C2`, the TGI [2] was > 100 µM, the TGI [3] was > 100 µM and the TGI [5] was > 100 µM. For the same molecule, the TGI [7] was > 100 µM, the TGI [8] was > 100 µM and the TGI [9] was > 100 µM. The TGI [10] was > 100 µM.

`CC1(C)CC2=C(Sc3ccccc3N2)C(=O)C1C(=O)C(=O)Nc1cc(Cl)ccc1Cl` (stereo not drawn) was tested, and the TGI [1] was > 100 µM, the TGI [3] was > 100 µM and the TGI [4] was > 100 µM. The TGI [5] was 28.1 µM, the TGI [6] was > 100 µM and the TGI [7] was > 100 µM. For the same molecule, the TGI [8] was > 100 µM, the TGI [9] was > 100 µM and the TGI [10] was > 100 µM.

`O=C(CCc1nc(=S)[nH][nH]1)Nc1cccc(C(F)(F)F)c1` was tested, and the TGI [1] was > 100 µM, the TGI [2] was > 100 µM and the TGI [3] was > 100 µM. The TGI [5] was > 100 µM, the TGI [7] was > 100 µM and the TGI [8] was > 100 µM. For the same molecule, the TGI [9] was > 100 µM and the TGI [10] was > 100 µM.

In the case of `CCN(CC)C(=S)SSC(=S)N(CC)CC`, the GI50 [1] is reported as 17 µM and 15.4 µM, the TGI [1] is reported as 31.8 µM and 30.1 µM and the GI50 [2] is reported as 33.9 µM and 33.7 µM. The TGI [2] was > 67.9 µM and 112 µM, the GI50 [3] was 16.5 µM and 16.8 µM and the TGI [3] was 31.5 µM and 35.5 µM. For the same molecule, the GI50 [5] was 23.8 µM and 17.4 µM, the TGI [5] was 84.2 µM and 66.4 µM and the GI50 [6] was 15.7 µM and 23.2 µM. The TGI [6] was 41.2 µM and 72 µM, the GI50 [7] was 22 µM and 18.6 µM and the TGI [7] was > 58 µM and 42.6 µM. For the same molecule, the GI50 [8] was 18.8 µM and 17.9 µM, the TGI [8] was 38.6 µM and 37.1 µM and the GI50 [9] was 49.4 µM and 58.9 µM. The TGI [9] was 173 µM, the GI50 [10] was 0.785 µM and the TGI [10] was 34.4 µM.

In the case of `COc1ccc(-c2onc(-c3c(C)cc(C)cc3C)c2C2=NCCN2)cc1`, the TGI [1] is reported as 49 µM, the TGI [2] is reported as > 100 µM and the TGI [3] is reported as > 100 µM. The TGI [5] was > 100 µM, the TGI [7] was > 100 µM and the TGI [8] was 44.1 µM. For the same molecule, the TGI [9] was > 100 µM and the TGI [10] was > 100 µM.

With `CCCCc1c2c(nc3c1CCc1cc4cc5c(nc4nc1-3)-c1nc3c(c(CCCC)c1CC5)CCC/C3=C\c1ccccc1)/C(=C/c1ccccc1)CCC2` the TGI [1] was > 100 µM, the TGI [2] was > 100 µM and the TGI [3] was > 100 µM. The TGI [5] was > 100 µM, the TGI [7] was > 100 µM and the TGI [8] was > 100 µM. For the same molecule, the TGI [9] was > 100 µM and the TGI [10] was > 100 µM.

With `CC(=O)NNc1nc(C)c(C(=O)/C=C/c2ccc(/C=C/C(=O)c3sc(NNC(C)=O)nc3C)cc2)s1` the TGI [1] was > 100 µM, the TGI [2] was > 100 µM and the TGI [3] was > 100 µM. For the same molecule, the TGI [5] was > 100 µM, the TGI [7] was > 100 µM and the TGI [8] was > 100 µM. For the same molecule, the TGI [9] was > 100 µM and the TGI [10] was > 100 µM.

For `CCN(C(=O)CN1CCN(c2cc3c(cc2F)c(=O)c(C(=O)O)cn3CC)CC1)c1nc(-c2ccccc2)cs1`, the GI50 [1] was 0.226 µM, the TGI [1] was 0.568 µM and the GI50 [2] was 0.345 µM. For the same molecule, the TGI [2] was > 100 µM, the GI50 [3] was 0.301 µM and the TGI [3] was > 100 µM. For the same molecule, the GI50 [4] was 0.295 µM, the TGI [4] was > 100 µM and the GI50 [5] was 0.394 µM. For the same molecule, the TGI [5] was > 100 µM, the GI50 [6] was 0.362 µM and the TGI [6] was > 100 µM. For the same molecule, the GI50 [7] was 0.43 µM, the TGI [7] was > 100 µM and the GI50 [8] was 0.337 µM. For the same molecule, the TGI [8] was > 100 µM.

With `CCC1C(=O)OCc2c1cc1n(c2=O)C(CC)c2c-1nc1ccccc1c2Cl` (stereo not drawn) the TGI [1] was 37 µM, the TGI [2] was 87.1 µM and the TGI [3] was 77.1 µM. For the same molecule, the TGI [5] was 55.4 µM, the TGI [7] was > 100 µM and the TGI [8] was 41.1 µM. For the same molecule, the TGI [9] was 89 µM.

For `C#C[C@H]1CCCCCC1O` (stereo partly drawn), the TGI [1] was > 100 µM, the TGI [2] was > 100 µM and the TGI [3] was > 100 µM. For the same molecule, the TGI [5] was > 100 µM, the TGI [7] was > 100 µM and the TGI [8] was > 100 µM. The TGI [9] was > 100 µM and the TGI [10] was > 100 µM.

For `CCCCCCCCCCCCCP(=O)(NCC(N)=O)OCC` (stereo not drawn), the TGI [1] was 34 µM, the TGI [2] was 32 µM and the TGI [3] was 31.7 µM. It also gave a TGI [5] of 39.8 µM, a TGI [7] of 38.4 µM and a TGI [8] of 31.3 µM. It also gave a TGI [9] of 41.8 µM.

With `CN1CCc2c1nc(-c1cccnc1)c1c2N(C)CC1` the TGI [1] was > 100 µM, the TGI [2] was > 100 µM and the TGI [3] was > 100 µM. For the same molecule, the TGI [5] was > 100 µM, the TGI [7] was > 100 µM and the TGI [8] was > 100 µM. For the same molecule, the TGI [9] was > 100 µM.

With `COC(=O)C#CCC1CCCC1C1SCCS1` (stereo not drawn) the TGI [1] was > 100 µM, the TGI [2] was > 100 µM and the TGI [3] was > 100 µM. For the same molecule, the TGI [7] was > 100 µM, the TGI [8] was > 100 µM and the TGI [9] was > 100 µM. For the same molecule, the TGI [10] was 84.3 µM.

`O=C(N/C(=C\c1cc(Cl)ccc1Cl)c1nc2ccc(Cl)cc2[nH]1)c1ccccc1` showed a TGI [1] of 33.6 µM, a TGI [2] of 32.3 µM and a TGI [3] of 30.9 µM. It also gave a TGI [5] of 30.5 µM, a TGI [7] of 28.1 µM and a TGI [8] of 35.1 µM. It also gave a TGI [9] of 51.8 µM and a TGI [10] of 25.5 µM.

In the case of `CN1CCN(c2cc3nc4ccccc4n(-c4ccc(Cl)cc4)c-3cc2=N)CC1`, the GI50 [1] is reported as > 100 µM, the TGI [1] is reported as > 100 µM and the GI50 [2] is reported as 23.3 µM. The TGI [2] was 65 µM, the GI50 [3] was > 100 µM and the TGI [3] was > 100 µM. For the same molecule, the GI50 [4] was 35.6 µM, the TGI [4] was > 100 µM and the GI50 [5] was 39.6 µM. The TGI [5] was > 100 µM, the GI50 [6] was 16.1 µM and the TGI [6] was 86.8 µM. The GI50 [7] was 32.1 µM, the TGI [7] was > 100 µM and the GI50 [8] was 26.6 µM. The TGI [8] was 73.7 µM, the GI50 [9] was > 100 µM and the TGI [9] was > 100 µM.

`COc1ccc2c(c1)C(=O)c1c-2c(N2CCNCC2)nc2ccccc12` was tested, and the GI50 [1] was 1.66 µM, the TGI [1] was 3.28 µM and the GI50 [3] was 1.49 µM. The TGI [3] was 3.34 µM, the GI50 [4] was 1.28 µM and the TGI [4] was 2.58 µM. It also gave a GI50 [5] of 0.614 µM, a TGI [5] of 1.98 µM and a GI50 [6] of 0.267 µM. The TGI [6] was 8.67 µM, the GI50 [7] was 2.14 µM and the TGI [7] was 11.9 µM. The GI50 [8] was 3.8 µM, the TGI [8] was 12.7 µM and the GI50 [9] was 6 µM. For the same molecule, the TGI [9] was 19.2 µM.

In the case of `Nc1ncnc2c1nnn2C1C=C(CO)C(O)C1O` (stereo not drawn), the TGI [1] is reported as > 50.6 µM, the TGI [2] is reported as > 100 µM and the TGI [3] is reported as > 100 µM. For the same molecule, the TGI [5] was > 100 µM, the TGI [7] was > 100 µM and the TGI [8] was > 100 µM. The TGI [9] was > 100 µM.
